Laboratory results from US20240226115A1, “AXL INHIBITOR COMPOUNDS” (ARCUS BIOSCIENCES, INC., priority 2021, published 2024).

These molecules were tested against T1, recombinant human TYRO3 (Homo sapiens, UniProt Q06418) (assay: HTRF KinEASE-TK biochemical potency, TYRO3). Details: 1 nM TYRO3, 700 μM ATP.
T1 construct: purchased Invitrogen
T1 sequence (Q06418 41-890): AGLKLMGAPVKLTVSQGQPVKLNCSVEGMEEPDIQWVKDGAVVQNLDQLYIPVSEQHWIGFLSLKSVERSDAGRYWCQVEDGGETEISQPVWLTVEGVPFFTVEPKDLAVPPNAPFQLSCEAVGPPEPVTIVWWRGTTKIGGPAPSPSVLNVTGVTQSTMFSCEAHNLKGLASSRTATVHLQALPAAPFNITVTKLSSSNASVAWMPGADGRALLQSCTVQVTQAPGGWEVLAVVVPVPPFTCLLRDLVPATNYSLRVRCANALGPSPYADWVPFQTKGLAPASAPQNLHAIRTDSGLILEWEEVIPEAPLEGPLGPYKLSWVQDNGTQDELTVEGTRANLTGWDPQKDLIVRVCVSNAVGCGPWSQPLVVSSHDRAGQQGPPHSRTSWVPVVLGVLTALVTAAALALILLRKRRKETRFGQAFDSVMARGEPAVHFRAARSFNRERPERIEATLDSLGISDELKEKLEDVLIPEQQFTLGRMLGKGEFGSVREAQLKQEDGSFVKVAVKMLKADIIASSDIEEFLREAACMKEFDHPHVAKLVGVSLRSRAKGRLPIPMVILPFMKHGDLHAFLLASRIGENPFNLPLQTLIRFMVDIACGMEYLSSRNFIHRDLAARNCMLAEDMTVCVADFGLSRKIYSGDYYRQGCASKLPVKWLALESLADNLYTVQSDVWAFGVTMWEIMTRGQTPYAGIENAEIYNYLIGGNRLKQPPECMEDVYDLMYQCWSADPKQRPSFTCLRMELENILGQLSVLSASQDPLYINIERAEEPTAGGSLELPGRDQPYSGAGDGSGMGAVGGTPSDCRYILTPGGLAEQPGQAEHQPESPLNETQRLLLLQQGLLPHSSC
Method: Purified recombinant human AXL, TYRO3 and MER proteins were purchased from Invitrogen™. 10 nM AXL, 2 nM TYRO3 or MER were incubated with varying concentrations of compounds in 50 mM HEPES, pH 7.4, 10 mM MgCl2, 0.01% BSA, 1 mM DTT and 2% DMSO in a total volume of 20 μl in a 384-well microplate (Corning™ #3640) at RT for 1 h. The AXL, TYRO3 and MER enzymatic reaction was initiated by transferring 10 μl of enzyme and compound mixture into 10 μl of 1.6 μM TK Substrate-biotin (HTRF® KinEASE-TK kit, Cisbio) and 1400 μM ATP pre-incubated in 50 mM HEPES, pH 7.4, 10 mM MgCl2, 0.01% BSA, 1 mM DTT in a 384-well microplate (Corning™ #3640) at RT, giving the final reaction conditions: 5 nM AXL, 1 nM TYRO3 or MER, 800 nM TK Substrate-biotin and 700 μM ATP in 50 mM HEPES, pH 7.4, 10 mM MgCl2, 0.01% BSA, 1 mM DTT and 1% DMSO with varying concentrations of compounds. Following 2 h incubation at RT, the AXL, TYRO3 and MER enzymatic reaction was stopped by transfer of 10 μl of reaction into 10 μl of detection mix (400 nM Streptavidin-XL665, 200-fold dilution TK Antibody-Cryptate and detection buffer, HTRF® KinEASE-TK kit, Cisbio) in a white 384-well microplate (Perkin Elmer, OptiPlate 384). After 1 h incubation at RT, the plate was put into a plate reader (Evision) to read at 665/620 nm (acceptor/donor) for HTRF. The value of the DMSO blank (MIN inhibition=100% activity) was used as a negative control. The positive control was established by adding 5 μl of enzyme and DMSO mixture into 10 μl of detection mix followed by addition of 5 μl of TK Substrate-biotin and ATP mixture (MAX inhibition=0% activity). To calculate the percent activity, Equation 1 was used. Ratio665/620 is the value at a given compound concentration: […]
An IC50 of less than 100 nM was found for `O=C1NCCOc2cc(-c3n[nH]c4ncc(-c5ccc6c(c5)CCN(C(=O)C5CC5)CC6)cc34)ccc21` [Example 17, 8-[5-(3-Cyclopropanecarbonyl-2,3,4,5-tetrahydro-1H-3-benzazepin-7-yl)-1H-pyrazolo[3,4-b]pyridin-3-yl]-2,3,4,5-tetrahydro-1,4-benzoxazepin-5-one] in this work.
An IC50 of less than 100 nM was found for `C[C@@H]1CCCN1C1CCc2ccc(-c3cnc4[nH]nc(-c5ccc6c(c5)S(=O)(=O)NC6(C)C)c4c3)cc2CC1` (stereo partly drawn) [Example 33, 3,3-Dimethyl-6-(5-{7-[(2R)-2-methylpyrrolidin-1-yl]-6,7,8,9-tetrahydro-5H-benzo[7]annulen-2-yl}-1H-pyrazolo[3,4-b]pyridin-3-yl)-2,3-dihydro-1λ^6,2-benzothiazole-1,1-dione] in this work.
An IC50 of less than 100 nM was found for `O=C1NCCOc2cc(-c3n[nH]c4ncc(-c5ccc6c(c5)CN(C5CCCC5)CC6)cc34)ccc21` [Example 10, 8-(5-(2-Cyclopentyl-1,2,3,4-tetrahydroisoquinolin-7-yl)-1H-pyrazolo[3,4-b]pyridin-3-yl)-3,4-dihydrobenzo[f][1,4]oxazepin-5(2H)-one] in this work.
An IC50 of less than 100 nM was found for `O=C1NCCOc2cc(-c3n[nH]c4ncc(-c5ccc6c(c5)CCC(N5CCNCC5)CC6)cc34)ccc21` (centres unmarked) [Example 48, 8-{5-[7-(Piperazin-1-yl)-6,7,8,9-tetrahydro-5H-benzo[7]annulen-2-yl]-1H-pyrazolo[3,4-b]pyridin-3-yl}-2,3,4,5-tetrahydro-1,4-benzoxazepin-5-one] in this work.
An IC50 of less than 100 nM was found for `COCCN1CCc2ccc(-c3cnc4[nH]nc(-c5ccc6c(c5)OCCNC6=O)c4c3)cc2CC1` [Example 15, 8-(5-(3-(2-Methoxyethyl)-2,3,4,5-tetrahydro-1H-benzo[d]azepin-7-yl)-1H-pyrazolo[3,4-b]pyridin-3-yl)-3,4-dihydrobenzo[f][1,4]oxazepin-5(2H)-one] in this work.
An IC50 of less than 100 nM was found for `O=C1NCCOc2cc(-c3n[nH]c4ncc(-c5ccc6c(c5)CCC(N5CCC[C@@H]5CO)CC6)cc34)ccc21` (stereo partly drawn) [Example 49, 8-(5-{7-[(2R)-2-(Hydroxymethyl)pyrrolidin-1-yl]-6,7,8,9-tetrahydro-5H-benzo[7]annulen-2-yl}-1H-pyrazolo[3,4-b]pyridin-3-yl)-2,3,4,5-tetrahydro-1,4-benzoxazepin-5-one] in this work.
An IC50 of less than 100 nM was found for `C[C@@H]1CCCN1C1CCc2ccc(-c3cnc4[nH]nc(-c5cc6c(cc5F)C(=O)NCCO6)c4c3)cc2CC1` (stereo partly drawn) [Example 61, 7-Fluoro-8-(5-{7-[(2R)-2-methylpyrrolidin-1-yl]-6,7,8,9-tetrahydro-5H-benzo[7]annulen-2-yl}-1H-pyrazolo[3,4-b]pyridin-3-yl)-2,3,4,5-tetrahydro-1,4-benzoxazepin-5-one] in this work.
An IC50 of less than 100 nM was found for `C[C@@H]1CNC(=O)c2ccc(-c3n[nH]c4ncc(-c5ccc6c(c5)CCC(N5CCC[C@H]5C)CC6)cc34)cc2O1` (stereo partly drawn) [Example 59, (2R)-2-Methyl-8-(5-{7-[(2R)-2-methylpyrrolidin-1-yl]-6,7,8,9-tetrahydro-5H-benzo[7]annulen-2-yl}-1H-pyrazolo[3,4-b]pyridin-3-yl)-2,3,4,5-tetrahydro-1,4-benzoxazepin-5-one] in this work.
An IC50 of less than 100 nM was found for `O=C1NCCOc2cc(-c3n[nH]c4ncc(-c5ccc6c(c5)CCC(N[C@H]5CCOC5)C6)cc34)ccc21` (stereo partly drawn) [Example 4, 8-[5-(6-{[(3S)—Oxolan-3-yl]amino}-5,6,7,8-tetrahydronaphthalen-2-yl)-1H-pyrazolo[3,4-b]pyridin-3-yl]-2,3,4,5-tetrahydro-1,4-benzoxazepin-5-one] in this work.
An IC50 of less than 100 nM was found for `O=C1NCCOc2cc(-c3n[nH]c4ncc(-c5ccc6c(c5)CCNC6)cc34)ccc21` [Example 54, 8-(5-(1,2,3,4-Tetrahydroisoquinolin-6-yl)-1H-pyrazolo[3,4-b]pyridin-3-yl)-3,4-dihydrobenzo[f][1,4]oxazepin-5(2H)-one] in this work.
An IC50 of less than 100 nM was found for `O=C1NCCOc2cc(-c3n[nH]c4ncc(-c5ccc6c(c5)CCN(C5CC5)CC6)cc34)ccc21` [Example 20, 8-(5-(3-Cyclopropyl-2,3,4,5-tetrahydro-1H-benzo[d]azepin-7-yl)-1H-pyrazolo[3,4-b]pyridin-3-yl)-3,4-dihydrobenzo[f][1,4]oxazepin-5(2H)-one] in this work.
An IC50 of less than 100 nM was found for `O=C1NCCOc2cc(-c3n[nH]c4ncc(-c5ccc6c(c5)CCC(N5CCOCC5)CC6)cc34)ccc21` (centres unmarked) [Example 47, 8-{5-[7-(Morpholin-4-yl)-6,7,8,9-tetrahydro-5H-benzo[7]annulen-2-yl]-1H-pyrazolo[3,4-b]pyridin-3-yl}-2,3,4,5-tetrahydro-1,4-benzoxazepin-5-one] in this work.
An IC50 of less than 100 nM was found for `C[C@@H]1CCCN1C1CCc2ccc(-c3cnc4[nH]nc(-c5ccc6c(c5)O[C@@H](C)CNC6=O)c4c3)cc2CC1` (stereo partly drawn) [Example 62, (2S)-2-Methyl-8-(5-{7-[(2R)-2-methylpyrrolidin-1-yl]-6,7,8,9-tetrahydro-5H-benzo[7]annulen-2-yl}-1H-pyrazolo[3,4-b]pyridin-3-yl)-2,3,4,5-tetrahydro-1,4-benzoxazepin-5-one] in this work.
An IC50 of less than 100 nM was found for `Cc1cc2c(cc1-c1n[nH]c3ncc(-c4ccc5c(c4)CCC(N4CCC[C@H]4C)CC5)cc13)OCCNC2=O` (stereo partly drawn) [Example 40, 7-Methyl-8-(5-{7-[(2R)-2-methylpyrrolidin-1-yl]-6,7,8,9-tetrahydro-5H-benzo[7]annulen-2-yl}-1H-pyrazolo[3,4-b]pyridin-3-yl)-2,3,4,5-tetrahydro-1,4-benzoxazepin-5-one] in this work.
An IC50 of less than 100 nM was found for `C[C@@H]1CCCN1C1CCc2ccc(-c3cnc4[nH]nc(-c5ccc6c(c5)OCCNC6=O)c4c3)cc2CC1` (stereo partly drawn) [Example 44, 8-(5-{7-[(2R)-2-Methylpyrrolidin-1-yl]-6,7,8,9-tetrahydro-5H-benzo[7]annulen-2-yl}-1H-pyrazolo[3,4-b]pyridin-3-yl)-2,3,4,5-tetrahydro-1,4-benzoxazepin-5-one] in this work.
An IC50 of less than 100 nM was found for `O=C1NCCOc2cc(-c3n[nH]c4ncc(-c5ccc6c(c5)CCNCC6)cc34)ccc21` [Example 53, 8-(5-(2,3,4,5-Tetrahydro-1H-benzo[d]azepin-7-yl)-1H-pyrazolo[3,4-b]pyridin-3-yl)-3,4-dihydrobenzo[f][1,4]oxazepin-5(2H)-one] in this work.
An IC50 of less than 100 nM was found for `O=C1NCCOc2cc(-c3n[nH]c4ncc(-c5ccc6c(c5)CCN(C5CCCC5)C6)cc34)ccc21` [Example 9, 8-(5-(2-Cyclopentyl-1,2,3,4-tetrahydroisoquinolin-6-yl)-1H-pyrazolo[3,4-b]pyridin-3-yl)-3,4-dihydrobenzo[f][1,4]oxazepin-5(2H)-one] in this work.
An IC50 of 100 to 1000 nM was found for `CC1(O)CCCOc2cc(-c3n[nH]c4ncc(-c5ccc6c(c5)CCN(C5CCCC5)CC6)cc34)ccc21` (centres unmarked) [Example 28, (8-[5-(3-Cyclopentyl-2,3,4,5-tetrahydro-1H-3-benzazepin-7-yl)-1H-pyrazolo[3,4-b]pyridin-3-yl]-5-methyl-2,3,4,5-tetrahydro-1-benzoxepin-5-ol)] in this work.
An IC50 of less than 100 nM was found for `O=C1NCCOc2cc(-c3n[nH]c4ncc(-c5ccc6c(c5)CC[C@@H](N5CCCC5)CC6)cc34)ccc21` (single isomer, unassigned) [Example 57] in this work.
An IC50 of less than 100 nM was found for `CC1(C)NS(=O)(=O)c2cc(-c3n[nH]c4ncc(-c5ccc6c(c5)CCC(N5CCCC5)CC6)cc34)ccc21` (centres unmarked) [Example 32, 3,3-Dimethyl-6-{5-[7-(pyrrolidin-1-yl)-6,7,8,9-tetrahydro-5H-benzo[7]annulen-2-yl]-1H-pyrazolo[3,4-b]pyridin-3-yl}-2,3-dihydro-1λ^6,2-benzothiazole-1,1-dione] in this work.
